Consider 26 compounds from US20240083861A1, “HSD17B13 INHIBITORS AND USES THEREOF” (FL2022-001, Inc., priority 2020, published 2024).

For the test, the target named is T1, Recombinant human HSD17B13 enzyme (Homo sapiens, UniProt Q7Z5P4).
T1 sequence (Q7Z5P4 20-300): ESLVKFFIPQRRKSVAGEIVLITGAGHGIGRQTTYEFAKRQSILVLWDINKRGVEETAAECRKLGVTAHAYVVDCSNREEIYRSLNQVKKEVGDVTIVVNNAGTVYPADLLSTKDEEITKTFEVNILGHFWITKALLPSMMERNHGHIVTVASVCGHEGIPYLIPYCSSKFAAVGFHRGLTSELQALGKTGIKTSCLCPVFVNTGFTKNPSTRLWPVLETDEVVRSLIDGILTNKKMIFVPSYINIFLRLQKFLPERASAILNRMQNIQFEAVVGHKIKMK
Briefly: HSD17b13 NAD(P)H-Glo biochemical assay. Conditions: 50 uM estradiol, 1 mM NAD+, NAD(P)H-Glo luminescence; read-out: HSD17β13 IC50. The method, then:
Example B-1: HSD17b13 NAD(P)H-Glo Biochemical Assay
Recombinant human HSD17B13 enzyme. Substrate: estradiol (Sigma β-Estradiol E8875), 100 mM in DMSO. Cofactor: NAD+ Grade I free acid (Sigma 10127965001), 20 mM in H2O. Assay buffer final concentration: 20 mM Tris pH7.4 with 0.002% Tween-20 and 0.02% BSA. Assay performed in 384 well solid bottom plate (Corning 3570). Enzymatic activity detected by NAD(P)H-Glo™ Detection System (Promega G9062).
Inhibitor compounds were serially diluted in DMSO and then further diluted in assay buffer to a 10× concentration consisting of 1% DMSO.
HSD17b13 enzyme was diluted in 1× assay buffer to the desired enzyme concentration based on the specific activity of the enzyme lot. 20 uL of diluted enzyme was added to each well along with 2.5 uL of 10× inhibitor solution. Assay plate was incubated at RT for 20 minutes, and then 2.5 uL of a 10× substrate/cofactor mix was added to each well for a final concentration of 50 uM estradiol and 1 mM NAD+. Assay plate was incubated at 37° C. for 3 hours. NAD(P)H-Glo™ Detection System reagents were prepared according to manufacturer's specifications, and 25 uL was added to each well. After incubating for 1 hour at RT, luminescence was measured.
For the compound `Cn1nc(-c2cc(C(F)(F)F)c(F)c(O)c2F)c2cnc(N3CCC(O)CC3)nc21` [Compound 18.04, 1-(3-(2,4-Difluoro-3-hydroxy-5-(trifluoromethyl)phenyl)-1-methyl-1H-pyrazolo[3,4-d]pyrimidin-6-y1)piperidin-4-ol], the IC50 – broadly, the concentration that gives 50% inhibition – was less than 100 nM.

As to `Cn1nc(-c2cc(C(F)(F)F)c(F)c(O)c2F)c2cnc(N3CC4(CC4)NCC3=O)cc21` [Compound 9.115, 7-(3-(2,4-Difluoro-3-hydroxy-5-(trifluoromethyl)phenyl)-1-methyl-1H-pyrazolo[4,3-c]pyridin-6-yl)-4,7-diazaspiro[2.5]octan-6-one], the IC50 is 100 to 1000 nM. In the case of `Cn1nc(-c2cc(C(F)(F)F)c(F)c(O)c2F)c2cnc(N3CCOC(CC(=O)O)C3)nc21` (centres unmarked) [Compound 18.57, 2-(4-(3-(2,4-Difluoro-3-hydroxy-5-(trifluoromethyl)phenyl)-1-methyl-1H-pyrazolo[3,4-d]pyrimidin-6-yl)morpholin-2-yl)acetic Acid], the IC50 is 1000 to 30000 nM. The result for `Cn1nc(-c2cc(C(F)(F)F)c(F)c(O)c2F)c2ncc(N3CCN(S(C)(=O)=O)CC3)nc21` [Compound 12, 2,6-Difluoro-3-(1-methyl-6-(4-(methylsulfonyl)piperazin-1-yl)-1H-pyrazolo[3,4-b]pyrazin-3-yl)-5-(trifluoromethyl)phenol] reads 100 to 1000 nM; that for `Cn1nc(-c2cc(C(F)(F)F)c(F)c(O)c2F)c2cnc(N3CC(=O)NCC34CC4)cc21` [Compound 9.114, 4-(3-(2,4-Difluoro-3-hydroxy-5-(trifluoromethyl)phenyl)-1-methyl-1H-pyrazolo[4,3-c]pyridin-6-yl)-4,7-diazaspiro[2.5]octan-6-one], less than 100 nM; that for `Cn1nc(-c2ccc(Cl)c(O)c2Cl)c2cnc(N3CCN(S(C)(=O)=O)C4(CC4)C3)nc21` [Compound 12.07, 2,6-Dichloro-3-(1-methyl-6-(4-(methylsulfonyl)-4,7-diazaspiro[2.5]octan-7-yl)-1H-pyrazolo[3,4-d]pyrimidin-3-yl)phenol], 1000 to 30000 nM. The result for `CS(=O)(=O)N1CCN(c2cc3[nH]nc(-c4cc(O)c(F)c(C(F)(F)F)c4)c3cc2F)CC1` [Compound 9.24, 2-Fluoro-5-(5-fluoro-6-(4-(methylsulfonyl)piperazin-1-yl)-1H-indazol-3-yl)-3-(trifluoromethyl)phenol] reads 100 to 1000 nM; that for `Cn1nc(-c2cc(C(F)(F)F)c(F)c(O)c2F)c2cnc(N3CC(C)(C)C3)nc21` [Compound 9.06, 3-(6-(3,3-Dimethylazetidin-1-yl)-1-methyl-1H-pyrazolo[3,4-d]pyrimidin-3-yl)-2,6-difluoro-5-(trifluoromethyl)phenol], less than 100 nM; that for `Cn1nc(-c2cc(C(F)(F)F)c(F)c(O)c2F)c2cnc(N3CCC(O)(c4cccnc4)CC3)nc21` [Compound 18.88, 1-(3-(2,4-Difluoro-3-hydroxy-5-(trifluoromethyl)phenyl)-1-methyl-1H-pyrazolo[3,4-d]pyrimidin-6-yl)-4-(pyridin-3-yl)piperidin-4-ol], less than 100 nM.

In the case of `Cn1nc(-c2cc(C(F)(F)F)c(F)c(O)c2F)c2cnc(N3CCS(=O)(=O)CC3C3CC3)cc21` (centres unmarked) [Compound 9.126, 3-Cyclopropyl-4-(3-(2,4-difluoro-3-hydroxy-5-(trifluoromethyl)phenyl)-1-methyl-1H-pyrazolo[4,3-c]pyridin-6-yl)thiomorpholine 1,1-dioxide], the IC50 is less than 100 nM. The same measure for `Cc1cc(-c2n[nH]c3cc(C4CCN(S(C)(=O)=O)CC4)ccc23)c(F)c(O)c1F` [Compound 15.01, 2,6-Difluoro-3-methyl-5-(6-(1-(methylsulfony1)piperidin-4-y1)-1H-indazol-3-yl)phenol]: less than 100 nM. `Cn1nc(-c2cc(C(F)(F)F)c(F)c(O)c2F)c2cnc(N3CCN(C(=O)Nc4ccccc4)CC34CCC4)cc21` [Compound 21.05, 5-(3-(2,4-Difluoro-3-hydroxy-5-(trifluoromethyl)phenyl)-1-methyl-1H-pyrazolo[4,3-c]pyridin-6-y1)-N-phenyl-5,8-diazaspiro[3.5]nonane-8-carboxamide]: the IC50 was less than 100 nM.

For `CS(=O)(=O)N1CCN(c2cnc3c(-c4cc(O)c(F)c(C(F)(F)F)c4)n[nH]c3n2)CC1` [Compound 10.04, 2-Fluoro-5-(6-(4-(methylsulfonyl)piperazin-1-yl)-1H-pyrazolo[3,4-b]pyrazin-3-yl)-3-(trifluoromethyl)phenol], the IC50 is 100 to 1000 nM.

On to `COC1CCN(c2cc3c(cn2)c(-c2cc(C(F)(F)F)c(F)c(O)c2F)nn3C)CC1` [Compound 9.47, 2,6-Difluoro-3-(6-(4-methoxypiperidin-1-yl)-1-methyl-1H-pyrazolo[4,3-c]pyridin-3-yl)-5-(trifluoromethyl)phenol], for which the IC50 was less than 100 nM. The same measure for `CN(c1cc2c(cn1)c(-c1cc(C(F)(F)F)c(F)c(O)c1F)nn2C)C1CC1` [Compound 9, 3-(6-(Cyclopropyl(methyl)amino)-1-methyl-1H-pyrazolo[4,3-c]pyridin-3-yl)-2,6-difluoro-5-(trifluoromethyl)phenol]: less than 100 nM; for `Cn1nc(-c2cc(C(F)(F)F)c(F)c(O)c2F)c2cnc(N3CC4CCC(C3)N4S(C)(=O)=O)nc21` [Compound 18.111, 2,6-Difluoro-3-(1-methyl-6-(8-(methylsulfony1)-3,8-diazabicyclo[3.2.1]octan-3-yl)-1H-pyrazolo[3,4-d]pyrimidin-3-y1)-5-(trifluoromethyl)phenol]: less than 100 nM. The result for `Cn1nc(-c2cc(C(F)(F)F)c(F)c(O)c2F)c2cnc(N3CCOCC3CC(F)(F)F)nc21` (centres unmarked) [Compound 18.107, 2,6-Difluoro-3-(1-methyl-6-(3-(2,2,2-trifluoroethyl)morpholino)-1H-pyrazolo[3,4-d]pyrimidin-3-y1)-5-(trifluoromethyl)phenol] reads less than 100 nM; that for `Cn1nc(-c2cc(C(F)(F)F)c(F)c(O)c2F)c2cnc(N3CCC(O)CC34CC4)cc21` (centres unmarked) [Compound 9.49, 4-(3-(2,4-Difluoro-3-hydroxy-5-(trifluoromethyl)phenyl)-1-methyl-1H-pyrazolo[4,3-c]pyridin-6-yl)-4-azaspiro [2.5]octan-7-ol], less than 100 nM. The same measure for `Cn1nc(-c2cc(C(F)(F)F)c(F)c(O)c2F)c2cnc(N3CCS(=O)(=O)CC3(C)C)cc21` [Compound 9.125, 4-(3-(2,4-Difluoro-3-hydroxy-5-(trifluoromethyl)phenyl)-1-methyl-1H-pyrazolo[4,3-c]pyridin-6-yl)-3,3-dimethylthiomorpholine 1,1-dioxide]: 100 to 1000 nM. For `CC(=O)N(C)C1CCN(c2ncc3c(-c4cc(C(F)(F)F)c(F)c(O)c4F)nn(C)c3n2)CC1` [Compound 18.28, N-(1-(3-(2,4-Difluoro-3-hydroxy-5-(trifluoromethyl)phenyl)-1-methyl-1H-pyrazolo[3,4-d]pyrimidin-6-yl)piperidin-4-y1)-N-methylacetamide], the IC50 was less than 100 nM. The result for `Cc1cc(N(C)C2CCOCC2)cc2c1c(-c1cc(C(F)(F)F)c(F)c(O)c1F)nn2C` [Compound 9.137, 3-(1,4-Dimethyl-6-(methyl(tetrahydro-2H-pyran-4-yl)amino)-1H-indazol-3-yl)-2,6-difluoro-5-(trifluoromethyl)phenol] reads 100 to 1000 nM; that for `Cn1nc(-c2cc(C(F)(F)F)c(F)c(O)c2F)c2cnc(N3CCNCC34CC4)cc21` [Compound 9.111, 2,6-Difluoro-3-(1-methyl-6-(4,7-diazaspiro[2.5]octan-4-yl)-1H-pyrazolo[4,3-c]pyridin-3-yl)-5-(trifluoromethyl)phenol], less than 100 nM; that for `C[C@@H]1CN(C(=O)c2ccccc2)CCN1c1ncc2c(-c3cc(C(F)(F)F)c(F)c(O)c3F)nn(C)c2n1` [Compound 18.120, (R)-(4-(3-(2,4-Difluoro-3-hydroxy-5-(trifluoromethyl)phenyl)-1-methyl-1H-pyrazolo[3,4-d]pyrimidin-6-yl)-3-methylpiperazin-1-y1)(phenyl)methanone], less than 100 nM.

As for `CS(=O)(=O)N1CCN(c2cc3nc(-c4cc(O)c(F)c(F)c4)oc3cc2Cl)CC1` [Compound 5, 5-(6-Chloro-5-(4-(methylsulfonyl)piperazin-1-yl)benzo[d]oxazol-2-yl)-2,3-difluorophenol], the IC50 lay in the range of 100 to 1000 nM. Take `Oc1c(F)c(-c2n[nH]c3cc(N4CCOCC45CC5)ncc23)cc(C(F)(F)F)c1F` [Compound 11.03, 3-(6-(7-Oxa-4-azaspiro[2.5]octan-4-yl)-1H-pyrazolo[4,3-c]pyridin-3-yl)-2,6-difluoro-5-(trifluoromethyl)phenol]: the IC50 was less than 100 nM. The same measure for `Cn1nc(-c2cc(C(F)(F)F)c(F)c(O)c2F)c2cnc(N3CCC4(CCOC4)CC3)nc21` [Compound 18.37, 2,6-Difluoro-3-(1-methyl-6-(2-oxa-8-azaspiro[4.5]decan-8-yl)-1H-pyrazolo[3,4-d]pyrimidin-3-y1)-5-(trifluoromethyl)phenol]: less than 100 nM.
